Results reported in article PMC9574934, “Targeting the Phosphatidylserine-Immune Checkpoint with a Small-Molecule Maytansinoid Conjugate” (Journal of Medicinal Chemistry, 2022).

Key:
[1] = tested on: PS-coated liposomes (DOPC/ DOPS (3:1,v/v)); experiment: Biacore SPR binding assay with PS-containing liposomes; settings: for dissociation koff: zinc-coordinated, DOPC/DOPS (3:1) liposomes, 25 °C, DOPC reference
Method: Phospholipids, 1,2-dioleoyl-sn-glycero-3-phosphocholine (DOPC), and 1,2-dioleoyl-sn-glycero-3-[phospho-L-serine] (DOPS) were obtained from Avanti Polar Lipids (Alabaster, AL) in chloroform solutions. These stock solutions were combined to the indicated ratios. To a round-bottom flask, a 0.4 mL aliquot of lipid solution at concentration of 10 mg/mL was added and evaporated under a N2 gas stream to furnish a thin lipid film. Rehydration of lipid films was carried out in PBS buffer for at least 1 h at room temperature. Resulting suspensions were extruded through a 100 nm polycarbonate filter using an Avanti MiniExtruder following the manufacturer’s instructions. Zeta potential (ZP) and liposomes’ size distributions were recorded by dynamic light scattering (DLS) and microelectrophoresis using a Zetasizer Nano ZS instrument. Then, using a Biacore T200 biosensor equipped with an L1 sensor chip (GE Healthcare), binding kinetics between the conjugates and liposome were recorded at 25 °C. Preconditioning of new sensor chips was performed with running buffer (5% DMSO in phosphate-buffered saline (PBS) with final pH 7.4) and two consecutive 30 s pulses of 2:3 v/v 50 mM HCl/isopropanol at a flow rate of 30 μL/min. A fresh liposome capture plate was prepared for each binding cycle. In PBS buffer, liposomes were diluted to 0.5–1 mM and captured to saturation (30–150 s) across isolated flow cells at 2–5 μL/min. In a single injection, conjugates were first diluted with running buffer and injected over lipid surfaces. At flow rate of 30 μL/min, association and dissociation phases were examined for 60s. At the end of each binding cycle, the surface was regenerated by injecting 2:3 v/v 50 mM HCl/isopropanol and equilibrated with running buffer before the next injection of the test compound. […]
Figure S3. […] Zinc-coordinated dipicolylamine 24 and modified analog 11 were analyzed across a two-fold concentration series descending from 31.3 μM. The association was monitored for 1 min, and the dissociation time was 1 min. […]

[2] = tested on: MIA PaCa-2 human pancreatic cells; experiment: MTS cell viability assay, MIA PaCa-2; assay type: cell-based; settings: 72 h incubation, read-out: MIA PaCa2 IC50
Method: (§1) The MTS assay was performed to examine cell viability.

[3] = tested on: HCC 1806 human triple-negative breast cancer cell; experiment: MTS cell viability assay, HCC1806; assay type: cell-based; settings: 72 h incubation
Method: as §1

[4] = tested on: Detroit 551 normal skin fibroblast; experiment: MTS cell viability assay, Detroit 551; assay type: cell-based; settings: Homo sapiens, 72 h incubation
Method: as §1

[5] = Plasma incubation and tumor homogenate cleavage of conjugate; assay type: in vitro ADME; settings: glutathione transferase inhibitor added to tumor homogenate
Excerpt: Figure 3 In vivo targeting ability, plasma stability, and in vivo biodistribution of modified zinc dipicolylamine conjugates in subcutaneous HCC1806 tumor xenografts. […] (B) In vivo detection of PS-expression in the HCC1806 tumor xenograft model. Representative IVIS images of new Zn11-794 fluorescence probe in mice.

Row | SMILES | dissociation koff [1] | IC50 [2] | IC50 [3] | IC50 [4] | further results
1 | NCCCCOc1cc(CN(Cc2ccccn2)Cc2ccccn2)cc(CN(Cc2ccccn2)Cc2ccccn2)c1 [Compound 24, reference compound] | 0.0113 s^–1 |  |  |  | 
2 | COc1cc2cc(c1Cl)N(C)C(=O)C[C@H](OC(=O)[C@H](C)N(C)C(=O)CCS)[C@]1(C)O[C@H]1[C@H](C)[C@@H]1C[C@@](O)(NC(=O)O1)[C@H](OC)/C=C/C=C(\C)C2 [Compound 14, DM1] |  | 74 ± 27 nM | 8 ± 3 nM | > 20000 nM | 
3 | COc1cc2cc(c1Cl)N(C)C(=O)C[C@H](OC(=O)[C@H](C)N(C)C(=O)CCC(C)(C)S)[C@]1(C)O[C@H]1[C@H](C)[C@@H]1C[C@@](O)(NC(=O)O1)[C@H](OC)/C=C/C=C(\C)C2 [Compound 16, DM4] |  | 30 ± 3 nM | 4 nM | > 20000 nM | 
4 | C=C(CC)C(=O)c1ccc(OCC(=O)O)c(Cl)c1Cl [ethacrynic acid, reference compound] |  |  |  |  | effect on abundance of intact conjugate 40a in tumor homogenate [5]: significantly rescued
5 | CCCCCC(=O)Nc1cccc(CN(Cc2cc(CN(Cc3ccccn3)Cc3cccc(NC(=O)CCCCC)n3)cc(OCCCCN)c2)Cc2ccccn2)n1 [Compound 11] | 0.00358 s^–1 |  |  |  | improvement of dissociation koff over compound 24 ([1]; PS-containing liposomes): 3 fold
